Patent US8067424B2, “Selective inhibitors for cyclin-dependent kinases” (Emory University, priority 2007, dated 2011)
Like-named read-outs stand apart in the source and are kept apart here.

Legend:
Format in all cases: biochemical
RSK2 = RSK2 (Homo sapiens, UniProt P51812); assay: Kinase screen: MAPKAP-K1b/RSK2 assay
Method: (§1) Generally, the same procedure was used for all assays. Since the total assay volume was 25.5 microliters, 0.5 microliters of inhibitors at 51× assay concentration were added to the plates before any other addition.
(§2) The basic procedure was to add 0.5 microliters inhibitor/control in DMSO to plate. Fifteen microliters of enzyme/substrate/buffer mix were added and incubated for 5 min. Ten microliters MgATP at the relevant concentration were added and incubated for 30 min. The assay was stopped by adding 5 microliters of 3% orthophosphoric acid. The assay was transferred to a p81 filter plate and read in a scintillation counter of 30 sec/well. Note that this assay procedure was not followed for MKK1, which instead involved a two-step assay, and PKC alpha, which required the addition of lipid vesicles.
MAPKAP-K1b/RSK2 assay: MAPKAP-K1b (5-20 mU diluted in 20 mM MOPS pH 7.5, 1 mM EDTA, 0.01% Brij35, 5% glycerol, 0.1% b-mercaptoethanol, 1 mg/ml BSA) was assayed against substrate peptide ([…]) (SEQ ID NO: 3) in a final volume of […] containing 50 mM Na-b-glycerophosphate (pH 7.5), 0.5 mM EDTA, 30 μM substrate peptide, 10 mM magnesium acetate and 0.05 mM [33P-g-ATP] (50-1000 cpm/pmole) and incubated for 30 min at room temperature. Assays were stopped by addition of 5 μl of 0.5 M (3%) orthophosphoric acid and then harvested onto P81 Unifilter plates with a wash buffer of 50 mM orthophosphoric acid.

PRAK = target: T1, PRAK (Homo sapiens, UniProt Q8IW41); assay: Kinase screen: PRAK assay
T1 sequence (Q8IW41 1-473): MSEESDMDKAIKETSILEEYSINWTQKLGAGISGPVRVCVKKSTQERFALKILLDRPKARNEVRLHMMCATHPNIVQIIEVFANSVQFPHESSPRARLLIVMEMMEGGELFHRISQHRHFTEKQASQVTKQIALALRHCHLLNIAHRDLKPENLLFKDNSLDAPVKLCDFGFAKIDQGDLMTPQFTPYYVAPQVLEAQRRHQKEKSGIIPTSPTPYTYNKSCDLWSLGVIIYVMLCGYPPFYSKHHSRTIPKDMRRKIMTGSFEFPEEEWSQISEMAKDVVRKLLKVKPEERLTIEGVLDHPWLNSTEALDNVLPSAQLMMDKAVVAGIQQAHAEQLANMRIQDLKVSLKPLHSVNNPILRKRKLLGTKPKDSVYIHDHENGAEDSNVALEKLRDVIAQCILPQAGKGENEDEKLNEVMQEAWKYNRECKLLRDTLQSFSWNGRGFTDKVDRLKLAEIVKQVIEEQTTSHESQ
Method: as §1, §2
(§3) (50-1000 cpm/pmole) and incubated for 30 min at room temperature. Assays were stopped by addition of 5 μl of 0.5 M (3%) orthophosphoric acid and then harvested onto P81 Unifilter plates with a wash buffer of 50 mM orthophosphoric acid.

PLK1 (Okadaic Acid) = PLK1 (Okadaic Acid) (Homo sapiens, UniProt P53350); assay: Kinase screen: PLK1 (Okadaic Acid) assay
Method: as §1, §2, §3

MELK = MELK (Homo sapiens, UniProt Q14680); assay: Kinase screen: MELK assay
Method: as §1, §2
MELK assay: MELK (5-20 mU diluted in 50 mM Tris pH 7.5, 0.1 mM EGTA, 0.1% b-mercaptoethanol, 1 mg/ml BSA) was assayed against a substrate peptide ([…]) (SEQ ID NO: 33) in a final volume of 25.5 μl containing 50 mM Tris pH 7.5, 0.05% b-mercaptoethanol, 200 μM substrate peptide, 10 mM magnesium acetate and 0.05 mM [33P-g-ATP] (50-1000 cpm/pmole) and incubated for 30 min at room temperature. Assays were stopped by addition of 5 μl of 0.5 M (3%) orthophosphoric acid and then harvested onto P81 Unifilter plates with a wash buffer of 50 mM orthophosphoric acid.

FGF-R1 = FGF-R1 (Homo sapiens, UniProt P11362); assay: Kinase screen: FGF-R1 assay; details: 10 micromolar compound; for remaining activity at 10 µM: read-out: mean activity remaining (as a percentage of the original activity), FGF-R1
Method: as §1, §2
FGF-R1 assay: FGF-R1 (5-20 mU diluted in 50 mM Tris pH 7.5, 0.1 mM EGTA, 1 mg/ml BSA) was assayed against a substrate peptide (Poly Glut Tyr) in a final volume of 25.5 μl containing 50 mM Tris pH 7.5, 1 mg/ml substrate peptide, 10 mM magnesium acetate and 0.02 mM [33P-g-ATP] (50-1000 cpm/pmole) and incubated for 30 min at room temperature. Assays were stopped by addition of 5 μl of 0.5 M (3%) orthophosphoric acid and then harvested onto P81 Unifilter plates with a wash buffer of 50 mM orthophosphoric acid.

IRR = IRR (Homo sapiens, UniProt P14616); assay: Kinase screen: IRR assay; details: 10 micromolar compound; for remaining activity at 10 µM: read-out: mean activity remaining (as a percentage of the original activity), IRR
Method: as §1, §2
IRR assay: 5-20 mU of IRR (diluted in 50 mM Hepes (pH 7.5), 0.1 mM EGTA) was assayed against MBP in a final volume of 25.5 μl containing 50 mM Hepes (pH 7.5), 0.1 mM EGTA, 0.33 mg/ml MBP, 10 mM magnesium acetate and 0.005 mM [33P-g-ATP](500-1000 cpm/pmole) and incubated for 30 mins at room temperature. Assays were stopped by addition of 5 μl of 0.5M (3%) orthophosphoric acid. Assays were harvested onto P81 Unifilter plates using a wash buffer of 50 mM orthophosphoric acid.

[1] = 10 micromolar compound, read-out: mean activity remaining (as a percentage of the original activity), RSK2
[2] = 10 micromolar compound, read-out: mean activity remaining (as a percentage of the original activity), PRAK
[3] = 10 micromolar compound, read-out: mean activity remaining (as a percentage of the original activity), PLK 1 (Okadaic Acid)
[4] = 10 micromolar compound, read-out: mean activity remaining (as a percentage of the original activity), MELK

Sequence of PLK1 (Okadaic Acid) (P53350 whole entry, species assumed): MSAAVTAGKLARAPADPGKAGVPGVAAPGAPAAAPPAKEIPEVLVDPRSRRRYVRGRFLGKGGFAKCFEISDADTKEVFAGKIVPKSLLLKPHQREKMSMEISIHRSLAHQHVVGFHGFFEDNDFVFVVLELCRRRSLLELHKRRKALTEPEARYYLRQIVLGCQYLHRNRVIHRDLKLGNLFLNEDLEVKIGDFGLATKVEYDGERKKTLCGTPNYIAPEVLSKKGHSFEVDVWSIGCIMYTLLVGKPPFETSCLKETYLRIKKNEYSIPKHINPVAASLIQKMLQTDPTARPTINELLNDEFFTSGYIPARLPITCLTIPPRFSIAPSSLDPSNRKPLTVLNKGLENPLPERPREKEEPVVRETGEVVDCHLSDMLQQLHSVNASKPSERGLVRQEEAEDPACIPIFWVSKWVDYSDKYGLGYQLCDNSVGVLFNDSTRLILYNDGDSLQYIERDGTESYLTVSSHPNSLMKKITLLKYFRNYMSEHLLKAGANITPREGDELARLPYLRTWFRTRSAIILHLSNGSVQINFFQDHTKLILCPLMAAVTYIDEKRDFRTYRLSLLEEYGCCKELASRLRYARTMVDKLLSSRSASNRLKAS
Sequence of RSK2 (P51812 whole entry, species assumed): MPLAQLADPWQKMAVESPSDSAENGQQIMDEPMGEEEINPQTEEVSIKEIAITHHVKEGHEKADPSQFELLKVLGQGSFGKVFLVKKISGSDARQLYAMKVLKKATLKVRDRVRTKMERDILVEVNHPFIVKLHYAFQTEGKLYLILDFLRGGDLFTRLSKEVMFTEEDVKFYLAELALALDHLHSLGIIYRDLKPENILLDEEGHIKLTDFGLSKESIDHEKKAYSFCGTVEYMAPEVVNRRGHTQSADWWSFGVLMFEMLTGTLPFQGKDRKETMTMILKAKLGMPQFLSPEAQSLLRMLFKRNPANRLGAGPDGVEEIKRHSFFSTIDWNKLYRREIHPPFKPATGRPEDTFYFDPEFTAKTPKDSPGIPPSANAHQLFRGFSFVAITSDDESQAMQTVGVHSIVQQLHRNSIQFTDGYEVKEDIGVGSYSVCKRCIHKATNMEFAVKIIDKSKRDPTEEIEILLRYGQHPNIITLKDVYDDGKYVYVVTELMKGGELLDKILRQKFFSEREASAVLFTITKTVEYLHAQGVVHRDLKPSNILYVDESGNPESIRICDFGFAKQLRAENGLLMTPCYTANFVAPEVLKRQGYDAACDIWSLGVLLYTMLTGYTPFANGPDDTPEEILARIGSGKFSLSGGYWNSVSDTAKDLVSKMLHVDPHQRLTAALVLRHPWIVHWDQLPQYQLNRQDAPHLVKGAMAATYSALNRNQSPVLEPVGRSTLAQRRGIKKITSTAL
Sequence of IRR (P14616 27-1297, species assumed): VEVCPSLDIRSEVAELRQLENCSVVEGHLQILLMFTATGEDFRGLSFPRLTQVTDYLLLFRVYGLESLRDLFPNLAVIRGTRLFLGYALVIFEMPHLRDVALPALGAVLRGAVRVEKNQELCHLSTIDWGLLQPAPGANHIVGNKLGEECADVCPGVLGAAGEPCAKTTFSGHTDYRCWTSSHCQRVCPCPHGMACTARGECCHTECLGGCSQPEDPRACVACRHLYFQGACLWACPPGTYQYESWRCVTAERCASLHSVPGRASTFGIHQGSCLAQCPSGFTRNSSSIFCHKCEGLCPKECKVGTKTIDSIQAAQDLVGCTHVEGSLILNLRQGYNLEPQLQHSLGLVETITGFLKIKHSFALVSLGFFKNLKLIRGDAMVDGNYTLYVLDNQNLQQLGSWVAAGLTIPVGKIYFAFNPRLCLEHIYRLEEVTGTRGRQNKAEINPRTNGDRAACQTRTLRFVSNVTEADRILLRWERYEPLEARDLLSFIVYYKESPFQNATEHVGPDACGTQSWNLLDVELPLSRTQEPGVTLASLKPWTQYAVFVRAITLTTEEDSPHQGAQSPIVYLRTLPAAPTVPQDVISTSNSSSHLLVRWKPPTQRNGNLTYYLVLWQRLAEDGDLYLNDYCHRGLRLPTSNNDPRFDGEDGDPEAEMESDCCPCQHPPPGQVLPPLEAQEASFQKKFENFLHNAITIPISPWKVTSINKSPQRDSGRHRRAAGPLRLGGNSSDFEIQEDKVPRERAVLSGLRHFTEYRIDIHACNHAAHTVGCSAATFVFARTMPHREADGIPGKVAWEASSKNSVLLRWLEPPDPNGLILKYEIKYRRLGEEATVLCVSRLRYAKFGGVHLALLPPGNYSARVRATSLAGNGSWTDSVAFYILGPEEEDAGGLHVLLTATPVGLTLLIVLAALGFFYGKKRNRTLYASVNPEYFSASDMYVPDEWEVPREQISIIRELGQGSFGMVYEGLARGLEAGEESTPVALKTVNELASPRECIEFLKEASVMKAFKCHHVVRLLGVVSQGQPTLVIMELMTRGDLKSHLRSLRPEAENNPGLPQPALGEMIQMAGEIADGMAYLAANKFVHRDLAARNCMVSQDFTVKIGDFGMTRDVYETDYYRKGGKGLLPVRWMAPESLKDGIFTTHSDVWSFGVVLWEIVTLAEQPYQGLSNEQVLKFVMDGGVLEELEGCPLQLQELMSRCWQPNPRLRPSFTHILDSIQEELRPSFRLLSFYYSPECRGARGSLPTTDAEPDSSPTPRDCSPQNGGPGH
Sequence of MELK (Q14680 whole entry, species assumed): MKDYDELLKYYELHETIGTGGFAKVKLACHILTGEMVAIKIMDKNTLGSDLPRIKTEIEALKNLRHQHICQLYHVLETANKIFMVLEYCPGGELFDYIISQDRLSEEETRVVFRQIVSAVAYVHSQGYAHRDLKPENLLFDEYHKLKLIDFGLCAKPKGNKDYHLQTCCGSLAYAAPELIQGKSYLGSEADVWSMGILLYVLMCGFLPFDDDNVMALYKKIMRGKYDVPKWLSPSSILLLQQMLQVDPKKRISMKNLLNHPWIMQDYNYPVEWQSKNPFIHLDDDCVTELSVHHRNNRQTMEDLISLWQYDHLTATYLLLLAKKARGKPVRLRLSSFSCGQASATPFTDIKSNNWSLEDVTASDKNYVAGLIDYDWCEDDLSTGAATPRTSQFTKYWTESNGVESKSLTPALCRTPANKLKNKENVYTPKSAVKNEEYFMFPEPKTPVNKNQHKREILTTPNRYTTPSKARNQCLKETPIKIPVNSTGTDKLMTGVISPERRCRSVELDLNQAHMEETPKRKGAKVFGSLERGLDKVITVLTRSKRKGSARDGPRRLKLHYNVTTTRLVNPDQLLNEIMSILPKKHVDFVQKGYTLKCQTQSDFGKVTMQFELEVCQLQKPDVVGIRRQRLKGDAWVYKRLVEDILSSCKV
Sequence of FGF-R1 (P11362 22-822, species assumed): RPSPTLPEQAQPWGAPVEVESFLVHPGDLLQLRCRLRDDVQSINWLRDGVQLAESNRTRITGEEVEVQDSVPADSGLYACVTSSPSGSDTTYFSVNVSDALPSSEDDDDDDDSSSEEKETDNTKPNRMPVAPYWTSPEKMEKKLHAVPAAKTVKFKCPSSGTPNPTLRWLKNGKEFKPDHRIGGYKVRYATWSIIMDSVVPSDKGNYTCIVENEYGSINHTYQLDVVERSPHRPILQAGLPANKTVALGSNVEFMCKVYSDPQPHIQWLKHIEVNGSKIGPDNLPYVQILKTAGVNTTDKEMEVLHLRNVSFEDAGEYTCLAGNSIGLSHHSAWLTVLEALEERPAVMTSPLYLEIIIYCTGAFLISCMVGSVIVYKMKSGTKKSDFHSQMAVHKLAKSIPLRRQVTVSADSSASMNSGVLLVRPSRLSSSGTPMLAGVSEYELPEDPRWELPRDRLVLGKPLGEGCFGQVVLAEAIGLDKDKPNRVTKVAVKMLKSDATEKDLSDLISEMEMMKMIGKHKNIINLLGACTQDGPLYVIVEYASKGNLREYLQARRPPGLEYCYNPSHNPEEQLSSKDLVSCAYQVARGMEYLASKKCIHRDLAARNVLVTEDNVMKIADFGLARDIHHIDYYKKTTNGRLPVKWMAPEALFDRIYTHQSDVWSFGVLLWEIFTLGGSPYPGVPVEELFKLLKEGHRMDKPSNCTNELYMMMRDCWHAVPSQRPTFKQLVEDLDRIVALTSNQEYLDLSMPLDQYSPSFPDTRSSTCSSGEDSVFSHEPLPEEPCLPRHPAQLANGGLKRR

SMILES | remaining activity at 10 µM (RSK2; RSK2, 10 μM, read-out: Mean Remaining Enzyme Activity (%)) [%] | remaining activity at 10 µM (PRAK; PRAK, 10 μM, read-out: Mean Remaining Enzyme Activity (%)) [%] | remaining activity at 10 µM (PLK1 (Okadaic Acid); PLK1 (Okadaic Acid), 10 μM, read-out: Mean Remaining Enzyme Activity (%)) [%] | remaining activity at 10 µM (MELK; MELK, 10 μM, read-out: Mean Remaining Enzyme Activity (%)) [%] | remaining activity at 10 µM (RSK2; [1]) [%] | remaining activity at 10 µM (PRAK; [2]) [%] | remaining activity at 10 µM (PLK1 (Okadaic Acid); [3]) [%] | remaining activity at 10 µM (MELK; [4]) [%] | remaining activity at 10 µM (FGF-R1) [%] | remaining activity at 10 µM (IRR) [%] | mean activity remaining (as a percentage of the original activity), RSK2 (RSK2; 10 micromolar compound) [%] | mean activity remaining (as a percentage of the original activity), PRAK (PRAK; 10 micromolar compound) [%] | mean activity remaining (as a percentage of the original activity), PLK 1 (Okadaic Acid) (PLK1 (Okadaic Acid); 10 micromolar compound) [%] | mean activity remaining (as a percentage of the original activity), MELK (MELK; 10 micromolar compound) [%] | mean activity remaining (as a percentage of the original activity), FGF-R1 (FGF-R1) [%] | mean activity remaining (as a percentage of the original activity), IRR (IRR) [%]
CC(C)c1cnn2c(NCc3ccccc3)cc(NCCCCCCCN)nc12 [BS-181] | 55 | 115 | 108 | 63 |  |  |  |  |  |  |  |  |  |  |  | 
C=C[C@H](CO)Nc1cc(NCc2ccccc2)n2ncc(C(C)C)c2n1 [ICEC0065] |  |  |  |  | 84 | 86 | 104 | 90 | 87 | 24 |  |  |  |  |  | 
CC[C@H](CO)Nc1cc(NCc2ccccc2)n2ncc(C(C)C)c2n1 [ICEC0067] |  |  |  |  | 76 | 94 | 93 | 75 | 78 | 23 |  |  |  |  |  | 
CC(C)c1cnn2c(NCc3ccccc3)cc(N[C@@H](CO)[C@H](O)CO)nc12 [ICEC0318, (3S)-3-(7-(Benzylamino)-3-isopropylpyrazolo[1,5-a]pyrimidin-5-ylamino)butane-1,2,4-triol] |  |  |  |  | 90 | 97 | 97 | 88 | 86 | 32 |  |  |  |  |  | 
CC(C)c1cnn2c(NCc3ccccc3F)cc(NCCCCCN)nc12 [ICEC-0232] |  |  |  |  |  |  |  |  |  |  | 19 | 97 | 125 | 62 | 82 | 29
